Reference: patent US20260022142A1, “MACROCYCLIC IMMUNOMODULATORS” (Bristol-Myers Squibb Company, priority 2022, published 2026)
Bridge positions count the residues as written; N and C are the ends. Square brackets hold non-standard residues; d marks the D form. Peptide text beside a SMILES is read from it. * marks the point of attachment. ξ: configuration not given here. Bip = N[C@@H](Cc1ccc(-c2ccccc2)cc1)C(=O)O; Phe(3-Me) = Cc1cccc(C[C@H](N)C(=O)O)c1; ξBip = NC(Cc1ccc(-c2ccccc2)cc1)C(=O)O; 4Pal = N[C@@H](Cc1ccncc1)C(=O)O; Cha = N[C@@H](CC1CCCCC1)C(=O)O; Cit = NC(=O)NCCC[C@H](N)C(=O)O; Carboxymethyl = O=C(O)C*; Orn = NCCC[C@H](N)C(=O)O; Aun = NCCCCCCCCCCC(=O)O; Dab = NCC[C@H](N)C(=O)O; Dap = NC[C@H](N)C(=O)O; ξD = NC(CC(=O)O)C(=O)O; AEEA = NCCOCCOCC(=O)O

Target: T1, PD-1/PD-L1 interaction (PE-labeled human PD-L1-Ig binding to Jurkat cell line over-expressing human PD-1) (Homo sapiens, UniProt Q15116)
T1 construct: expressed in transfected cells; host or cells: Jurkat
T1 sequence (Q15116 25-288): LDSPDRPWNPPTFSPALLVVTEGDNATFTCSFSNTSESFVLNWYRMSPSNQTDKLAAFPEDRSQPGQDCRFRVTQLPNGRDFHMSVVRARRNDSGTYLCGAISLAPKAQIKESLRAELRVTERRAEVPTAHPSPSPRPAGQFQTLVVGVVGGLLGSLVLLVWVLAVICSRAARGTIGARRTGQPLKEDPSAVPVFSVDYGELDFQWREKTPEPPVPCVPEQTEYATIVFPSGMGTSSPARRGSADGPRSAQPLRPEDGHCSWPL
Test: Jurkat-PD-1 Cell Binding High-Content Screening Assay (CBA)
Assay type: cell-based
Conditions: Jurkat cell line over-expressing human PD-1; PE-labeled PD-L1-Ig 20 nM final; read-out: Jurkat hPD1-PDL1 IC50
Outline: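 Jurkat cells stably over-expressing human PD-1 were seeded in DMEM with 10% fetal calf serum and pre-incubated with compound for 2 h at 37° C. PE-labeled human PD-L1-Ig was then added at 20 nM final for 1 hour, after which cells were fixed with paraformaldehyde, Hoechst-stained and imaged by high-content microscopy.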

Structure (SMILES)	IC50 [nM]
Cc1cccc(C[C@@H]2NC(=O)[C@H](CC(=O)O)NC(=O)[C@H](Cc3ccncc3)NC(=O)[C@H](Cc3ccc(OCC(=O)O)cc3)NC(=O)CSC[C@@H](C(=O)NCCOCCOCC(=O)N[C@@H](CCN)C(=O)NCCCCCCCCCCC(=O)O)NC(=O)[C@H]([C@@H](C)O)NC(=O)[C@H](C(C)C)NC(=O)[C@H](CC3CCCCC3)NC(=O)[C@H](CCN)NC(=O)[C@@H](CC(C)C)NC(=O)[C@H](CCCN)NC(=O)[C@H](C(C)C)NC(=O)[C@H](Cc3ccc(-c4ccccc4)cc3)NC(=O)[C@H](C(C)C)NC2=O)c1 [Compound 1170] ({CH2CO}-Y(Carboxymethyl)[4Pal]D[Phe(3-Me)]V[Bip]V[Orn][dL][Dab][Cha]VTC[AEEA][Dab][Aun]-OH; thioether N-14)	37.9
Cc1cccc(C[C@@H]2NC(=O)[C@H](CC(=O)O)NC(=O)[C@H](Cc3ccncc3)NC(=O)[C@H](Cc3ccc(OCC(=O)O)cc3)NC(=O)CSC[C@@H](C(=O)NCCOCCOCC(=O)N[C@@H](CCCN)C(=O)NCCCCCCCCCCC(=O)O)NC(=O)[C@H]([C@@H](C)O)NC(=O)[C@H](C(C)C)NC(=O)[C@H](CC3CCCCC3)NC(=O)[C@H](CCN)NC(=O)[C@@H](CC(C)C)NC(=O)[C@H](CCCN)NC(=O)[C@H](C(C)C)NC(=O)[C@H](Cc3ccc(-c4ccccc4)cc3)NC(=O)[C@H](C(C)C)NC2=O)c1 [Compound 1171] ({CH2CO}-Y(Carboxymethyl)[4Pal]D[Phe(3-Me)]V[Bip]V[Orn][dL][Dab][Cha]VTC[AEEA][Orn][Aun]-OH; thioether N-14)	28
Cc1cccc(C[C@@H]2NC(=O)[C@H](CC(=O)O)NC(=O)[C@H](Cc3ccncc3)NC(=O)[C@H](Cc3ccc(OCC(=O)O)cc3)NC(=O)CSC[C@@H](C(=O)NCCOCCOCC(=O)N[C@@H](CCCCN)C(=O)NCCCCCCCCCCC(=O)O)NC(=O)[C@H]([C@@H](C)O)NC(=O)[C@H](C(C)C)NC(=O)[C@H](CC3CCCCC3)NC(=O)[C@H](CCN)NC(=O)[C@@H](CC(C)C)NC(=O)[C@H](CCCN)NC(=O)[C@H](C(C)C)NC(=O)[C@H](Cc3ccc(-c4ccccc4)cc3)NC(=O)[C@H](C(C)C)NC2=O)c1 [Compound 1172] ({CH2CO}-Y(Carboxymethyl)[4Pal]D[Phe(3-Me)]V[Bip]V[Orn][dL][Dab][Cha]VTC[AEEA]K[Aun]-OH; thioether N-14)	25
Cc1cccc(C[C@@H]2NC(=O)C(CC(=O)O)NC(=O)[C@H](Cc3ccc(OCC(=O)O)cc3)NC(=O)[C@H](CN)NC(=O)CSC[C@@H](C(=O)N[C@@H](CCCNC(=N)N)C(=O)NCCCCCCCCCCC(=O)O)NC(=O)[C@H]([C@@H](C)O)NC(=O)[C@H](C(C)C)NC(=O)[C@H](CC3CCCCC3)NC(=O)[C@H](CCN)NC(=O)[C@@H](CC(C)C)NC(=O)[C@H](CCCN)NC(=O)[C@H](CCCNC(N)=O)NC(=O)C(Cc3ccc(-c4ccccc4)cc3)NC(=O)[C@H](C(C)C)NC2=O)c1 (stereo partly drawn) [Compound 1174] ({CH2CO}-[Dap]Y(Carboxymethyl)[ξD][Phe(3-Me)]V[ξBip][Cit][Orn][dL][Dab][Cha]VTCR[Aun]-OH; thioether N-14)	16.6
Cc1cccc(C[C@@H]2NC(=O)C(CC(=O)O)NC(=O)[C@H](Cc3ccc(OCC(=O)O)cc3)NC(=O)[C@H](CN)NC(=O)CSC[C@@H](C(=O)N[C@@H](Cc3cnc[nH]3)C(=O)NCCCCCCCCCCC(=O)O)NC(=O)[C@H]([C@@H](C)O)NC(=O)[C@H](C(C)C)NC(=O)[C@H](CC3CCCCC3)NC(=O)[C@H](CCN)NC(=O)[C@@H](CC(C)C)NC(=O)[C@H](CCCN)NC(=O)[C@H](CCCNC(N)=O)NC(=O)C(Cc3ccc(-c4ccccc4)cc3)NC(=O)[C@H](C(C)C)NC2=O)c1 (stereo partly drawn) [Compound 1175] ({CH2CO}-[Dap]Y(Carboxymethyl)[ξD][Phe(3-Me)]V[ξBip][Cit][Orn][dL][Dab][Cha]VTCH[Aun]-OH; thioether N-14)	19.9
Cc1cccc(C[C@@H]2NC(=O)C(CC(=O)O)NC(=O)[C@H](Cc3ccc(OCC(=O)O)cc3)NC(=O)[C@H](CN)NC(=O)CSC[C@@H](C(=O)NCCOCCOCC(=O)N[C@@H](CN)C(=O)NCCCCCCCCCCC(=O)O)NC(=O)[C@H]([C@@H](C)O)NC(=O)[C@H](C(C)C)NC(=O)[C@H](CC3CCCCC3)NC(=O)[C@H](CCN)NC(=O)[C@@H](CC(C)C)NC(=O)[C@H](CCCN)NC(=O)[C@H](CCCNC(N)=O)NC(=O)C(Cc3ccc(-c4ccccc4)cc3)NC(=O)[C@H](C(C)C)NC2=O)c1 (stereo partly drawn) [Compound 1176] ({CH2CO}-[Dap]Y(Carboxymethyl)[ξD][Phe(3-Me)]V[ξBip][Cit][Orn][dL][Dab][Cha]VTC[AEEA][Dap][Aun]-OH; thioether N-14)	7.2
Cc1cccc(C[C@@H]2NC(=O)C(CC(=O)O)NC(=O)[C@H](Cc3ccc(OCC(=O)O)cc3)NC(=O)[C@H](CN)NC(=O)CSC[C@@H](C(=O)NCCOCCOCC(=O)N[C@@H](CCN)C(=O)NCCCCCCCCCCC(=O)O)NC(=O)[C@H]([C@@H](C)O)NC(=O)[C@H](C(C)C)NC(=O)[C@H](CC3CCCCC3)NC(=O)[C@H](CCN)NC(=O)[C@@H](CC(C)C)NC(=O)[C@H](CCCN)NC(=O)[C@H](CCCNC(N)=O)NC(=O)C(Cc3ccc(-c4ccccc4)cc3)NC(=O)[C@H](C(C)C)NC2=O)c1 (stereo partly drawn) [Compound 1177] ({CH2CO}-[Dap]Y(Carboxymethyl)[ξD][Phe(3-Me)]V[ξBip][Cit][Orn][dL][Dab][Cha]VTC[AEEA][Dab][Aun]-OH; thioether N-14)	8.3
Cc1cccc(C[C@@H]2NC(=O)C(CC(=O)O)NC(=O)[C@H](Cc3ccc(OCC(=O)O)cc3)NC(=O)[C@H](CN)NC(=O)CSC[C@@H](C(=O)NCCOCCOCC(=O)N[C@@H](CCCN)C(=O)NCCCCCCCCCCC(=O)O)NC(=O)[C@H]([C@@H](C)O)NC(=O)[C@H](C(C)C)NC(=O)[C@H](CC3CCCCC3)NC(=O)[C@H](CCN)NC(=O)[C@@H](CC(C)C)NC(=O)[C@H](CCCN)NC(=O)[C@H](CCCNC(N)=O)NC(=O)C(Cc3ccc(-c4ccccc4)cc3)NC(=O)[C@H](C(C)C)NC2=O)c1 (stereo partly drawn) [Compound 1178] ({CH2CO}-[Dap]Y(Carboxymethyl)[ξD][Phe(3-Me)]V[ξBip][Cit][Orn][dL][Dab][Cha]VTC[AEEA][Orn][Aun]-OH; thioether N-14)	9.7
Cc1cccc(C[C@@H]2NC(=O)C(CC(=O)O)NC(=O)[C@H](Cc3ccc(OCC(=O)O)cc3)NC(=O)[C@H](CN)NC(=O)CSC[C@@H](C(=O)NCCOCCOCC(=O)N[C@@H](CCCCN)C(=O)NCCCCCCCCCCC(=O)O)NC(=O)[C@H]([C@@H](C)O)NC(=O)[C@H](C(C)C)NC(=O)[C@H](CC3CCCCC3)NC(=O)[C@H](CCN)NC(=O)[C@@H](CC(C)C)NC(=O)[C@H](CCCN)NC(=O)[C@H](CCCNC(N)=O)NC(=O)C(Cc3ccc(-c4ccccc4)cc3)NC(=O)[C@H](C(C)C)NC2=O)c1 (stereo partly drawn) [Compound 1179] ({CH2CO}-[Dap]Y(Carboxymethyl)[ξD][Phe(3-Me)]V[ξBip][Cit][Orn][dL][Dab][Cha]VTC[AEEA]K[Aun]-OH; thioether N-14)	10.3
Cc1cccc(C[C@@H]2NC(=O)C(CC(=O)O)NC(=O)[C@H](Cc3ccc(OCC(=O)O)cc3)NC(=O)[C@H](CN)NC(=O)CSC[C@@H](C(=O)NCCOCCOCC(=O)N[C@@H](CCCNC(=N)N)C(=O)NCCCCCCCCCCC(=O)O)NC(=O)[C@H]([C@@H](C)O)NC(=O)[C@H](C(C)C)NC(=O)[C@H](CC3CCCCC3)NC(=O)[C@H](CCN)NC(=O)[C@@H](CC(C)C)NC(=O)[C@H](CCCN)NC(=O)[C@H](CCCNC(N)=O)NC(=O)C(Cc3ccc(-c4ccccc4)cc3)NC(=O)[C@H](C(C)C)NC2=O)c1 (stereo partly drawn) [Compound 1180] ({CH2CO}-[Dap]Y(Carboxymethyl)[ξD][Phe(3-Me)]V[ξBip][Cit][Orn][dL][Dab][Cha]VTC[AEEA]R[Aun]-OH; thioether N-14)	18.4
Cc1cccc(C[C@@H]2NC(=O)C(CC(=O)O)NC(=O)[C@H](Cc3ccc(OCC(=O)O)cc3)NC(=O)[C@H](CN)NC(=O)CSC[C@@H](C(=O)N[C@@H](CN)C(=O)NCCCCCCCCCCC(=O)O)NC(=O)[C@H]([C@@H](C)O)NC(=O)[C@H](C(C)C)NC(=O)[C@H](CC3CCCCC3)NC(=O)[C@H](CCN)NC(=O)[C@@H](CC(C)C)NC(=O)[C@H](CCCN)NC(=O)[C@H](CCCNC(N)=O)NC(=O)C(Cc3ccc(-c4ccccc4)cc3)NC(=O)[C@H](C(C)C)NC2=O)c1 (stereo partly drawn) [Compound 1181] ({CH2CO}-[Dap]Y(Carboxymethyl)[ξD][Phe(3-Me)]V[ξBip][Cit][Orn][dL][Dab][Cha]VTC[Dap][Aun]-OH; thioether N-14)	11.7
CC[C@H](C)[C@@H]1NC(=O)[C@H](Cc2ccc(-c3ccccc3)cc2)NC(=O)[C@H](C(C)C)NC(=O)[C@H](Cc2cccc(C)c2)NC(=O)[C@H](CC(=O)O)NC(=O)[C@H](Cc2ccc(C(=O)O)cc2)NC(=O)[C@H](Cc2ccncc2)NC(=O)CSC[C@@H](C(=O)NCCOCCOCC(=O)NCCCCCCCCCCC(=O)O)NC(=O)[C@H]([C@@H](C)O)NC(=O)[C@H](C(C)C)NC(=O)[C@H](CC2CCCCC2)NC(=O)[C@H](CCN)NC(=O)[C@@H](CC(C)C)NC(=O)[C@H](CCCN)NC1=O [Compound 1182]	43.7
CC[C@H](C)[C@@H]1NC(=O)[C@H](Cc2ccc(-c3ccccc3)cc2)NC(=O)[C@H](C(C)C)NC(=O)[C@H](Cc2cccc(C)c2)NC(=O)[C@H](CC(=O)O)NC(=O)[C@H](Cc2ccc(C(=O)O)cc2)NC(=O)[C@H](Cc2ccncc2)NC(=O)CSC[C@@H](C(=O)N[C@@H](CCCN)C(=O)NCCCCCCCCCCC(=O)O)NC(=O)[C@H]([C@@H](C)O)NC(=O)[C@H](C(C)C)NC(=O)[C@H](CC2CCCCC2)NC(=O)[C@H](CCN)NC(=O)[C@@H](CC(C)C)NC(=O)[C@H](CCCN)NC1=O [Compound 1184]	51.5
CC[C@H](C)[C@@H]1NC(=O)[C@H](Cc2ccc(-c3ccccc3)cc2)NC(=O)[C@H](C(C)C)NC(=O)[C@H](Cc2cccc(C)c2)NC(=O)[C@H](CC(=O)O)NC(=O)[C@H](Cc2ccc(C(=O)O)cc2)NC(=O)[C@H](Cc2ccncc2)NC(=O)CSC[C@@H](C(=O)N[C@@H](CCCCN)C(=O)NCCCCCCCCCCC(=O)O)NC(=O)[C@H]([C@@H](C)O)NC(=O)[C@H](C(C)C)NC(=O)[C@H](CC2CCCCC2)NC(=O)[C@H](CCN)NC(=O)[C@@H](CC(C)C)NC(=O)[C@H](CCCN)NC1=O [Compound 1185]	44.2
